Experimental data from patent US20240398784A1, “C-LINKED ISOQUINOLINE AMIDES AS LRRK2 INHIBITORS, PHARMACEUTICAL COMPOSITIONS, AND USES THEREOF” (Merck Sharp & Dohme LLC, priority 2021, published 2024).

Molecular target: LRRK2 G2019S (Homo sapiens, UniProt Q5S007, G2019S)
Assay: LRRK2 G2019S Km ATP LanthaScreen assay
Assay type: biochemical
Details: read-out: LRRK2 pIC50 (converted)
Protocol: Unless otherwise noted, all reactions are magnetically stirred. Unless otherwise noted, when diethyl ether is used in the experiments described below, it is Fisher ACS certified material and is stabilized with BHT. Unless otherwise noted, “concentrated” and/or “solvent removed under reduced pressure” means evaporating the solvent from a solution or mixture using a rotary evaporator or vacuum pump. Unless otherwise noted, flash chromatography is carried out on a Teledyne Isco (Lincoln, NE), Analogix (Burlington, WI), or Biotage (Stockholm, SWE) automated chromatography system using a commercially available cartridge as the column. Columns may be purchased from Teledyne Isco, Analogix, Biotage, Varian (Palo Alto, CA), or Supelco (Bellefonte, PA) and are usually filled with silica gel as the stationary phase. Reverse phase prep-HPLC conditions, where used, can be found at the end of each experimental section. Aqueous solutions were concentrated on a Genevac (Ipswich, ENG) or by freeze-drying/lyophilization.

Sequence of LRRK2 G2019S (Q5S007 whole entry G2019S): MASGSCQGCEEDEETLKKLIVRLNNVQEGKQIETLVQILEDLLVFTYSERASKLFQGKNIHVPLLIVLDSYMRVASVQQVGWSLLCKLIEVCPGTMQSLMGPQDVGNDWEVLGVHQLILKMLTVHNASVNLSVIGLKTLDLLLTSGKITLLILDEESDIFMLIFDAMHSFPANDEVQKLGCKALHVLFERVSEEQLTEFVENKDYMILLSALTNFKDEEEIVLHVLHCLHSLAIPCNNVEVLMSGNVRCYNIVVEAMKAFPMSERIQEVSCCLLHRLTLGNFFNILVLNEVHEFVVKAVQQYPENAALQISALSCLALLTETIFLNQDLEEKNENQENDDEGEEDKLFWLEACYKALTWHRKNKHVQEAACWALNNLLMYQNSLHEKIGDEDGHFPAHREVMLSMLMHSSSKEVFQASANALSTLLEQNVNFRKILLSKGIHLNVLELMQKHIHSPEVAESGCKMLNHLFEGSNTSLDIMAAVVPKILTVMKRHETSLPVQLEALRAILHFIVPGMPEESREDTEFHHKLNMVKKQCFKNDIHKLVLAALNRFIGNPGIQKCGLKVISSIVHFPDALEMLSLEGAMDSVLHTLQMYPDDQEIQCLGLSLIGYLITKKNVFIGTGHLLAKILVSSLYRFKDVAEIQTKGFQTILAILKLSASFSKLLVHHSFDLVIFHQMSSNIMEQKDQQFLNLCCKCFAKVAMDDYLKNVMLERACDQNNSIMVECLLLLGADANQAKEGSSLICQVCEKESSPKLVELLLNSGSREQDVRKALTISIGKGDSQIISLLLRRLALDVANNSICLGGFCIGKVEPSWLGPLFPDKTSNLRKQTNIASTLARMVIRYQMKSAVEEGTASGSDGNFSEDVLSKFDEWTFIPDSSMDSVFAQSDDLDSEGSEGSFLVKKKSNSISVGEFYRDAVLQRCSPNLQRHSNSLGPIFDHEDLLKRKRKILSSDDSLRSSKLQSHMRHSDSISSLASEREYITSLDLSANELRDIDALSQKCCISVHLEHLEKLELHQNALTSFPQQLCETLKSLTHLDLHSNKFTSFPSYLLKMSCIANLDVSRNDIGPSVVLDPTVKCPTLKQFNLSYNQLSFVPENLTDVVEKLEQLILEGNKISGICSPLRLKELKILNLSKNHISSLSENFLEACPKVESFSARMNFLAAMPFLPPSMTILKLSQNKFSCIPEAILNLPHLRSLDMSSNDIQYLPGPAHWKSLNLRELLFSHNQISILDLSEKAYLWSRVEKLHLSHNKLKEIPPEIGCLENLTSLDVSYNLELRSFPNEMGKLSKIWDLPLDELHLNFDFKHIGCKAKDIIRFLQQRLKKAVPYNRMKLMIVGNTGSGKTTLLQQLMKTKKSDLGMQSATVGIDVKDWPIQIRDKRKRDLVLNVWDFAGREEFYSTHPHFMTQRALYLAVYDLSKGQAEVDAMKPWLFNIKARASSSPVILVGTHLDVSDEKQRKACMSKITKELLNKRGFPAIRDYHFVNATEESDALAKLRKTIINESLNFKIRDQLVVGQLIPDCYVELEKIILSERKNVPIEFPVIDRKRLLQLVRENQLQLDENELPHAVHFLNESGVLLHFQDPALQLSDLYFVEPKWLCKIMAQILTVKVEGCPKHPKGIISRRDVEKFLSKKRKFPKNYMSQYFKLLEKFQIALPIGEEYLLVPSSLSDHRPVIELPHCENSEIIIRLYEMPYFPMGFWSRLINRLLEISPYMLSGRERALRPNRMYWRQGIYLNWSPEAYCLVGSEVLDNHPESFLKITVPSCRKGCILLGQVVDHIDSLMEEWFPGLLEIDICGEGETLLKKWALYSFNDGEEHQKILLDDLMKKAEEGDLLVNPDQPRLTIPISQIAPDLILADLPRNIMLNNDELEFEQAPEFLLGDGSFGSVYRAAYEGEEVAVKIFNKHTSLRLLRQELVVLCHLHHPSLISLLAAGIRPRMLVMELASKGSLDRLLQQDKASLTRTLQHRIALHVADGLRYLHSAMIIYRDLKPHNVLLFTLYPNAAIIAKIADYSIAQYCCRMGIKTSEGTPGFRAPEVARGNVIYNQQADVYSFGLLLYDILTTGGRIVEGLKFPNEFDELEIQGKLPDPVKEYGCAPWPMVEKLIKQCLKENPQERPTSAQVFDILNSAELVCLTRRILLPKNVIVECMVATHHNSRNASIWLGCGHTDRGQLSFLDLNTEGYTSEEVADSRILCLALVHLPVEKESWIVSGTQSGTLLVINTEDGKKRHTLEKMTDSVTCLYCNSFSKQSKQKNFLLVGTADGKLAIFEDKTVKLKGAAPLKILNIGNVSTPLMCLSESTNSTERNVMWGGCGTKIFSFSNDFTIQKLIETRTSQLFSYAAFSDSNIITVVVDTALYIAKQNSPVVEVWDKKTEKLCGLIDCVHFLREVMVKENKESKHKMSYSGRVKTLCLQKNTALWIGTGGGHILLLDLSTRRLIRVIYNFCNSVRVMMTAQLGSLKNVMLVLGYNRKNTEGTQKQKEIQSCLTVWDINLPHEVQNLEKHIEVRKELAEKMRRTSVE

## CC1(N2CCC(c3cc4cc(NC(=O)c5cnn(C6CC6)c5)ncc4cc3Cl)CC2)COCC1O (single isomer, unassigned) [Ex-1.48, N-(7-chloro-6-(1-((3R,4R or 3S,4S)-4-hydroxy-3-methyltetrahydrofuran-3-yl)piperidin-4-yl)isoquinolin-3-yl)-1-cyclopropyl-1H-pyrazole-4-carboxamide]
  IC50: 55 nM

## C[C@@]1(N2CCC(c3cc4cc(NC(=O)c5ccn(C6CC6)n5)ncc4cc3Cl)CC2)COC[C@@H]1O (single isomer, unassigned) [Ex-1.49, N-(7-chloro-6-(1-((3R,4R or 3S,4S)-4-hydroxy-3-methyltetrahydrofuran-3-yl)piperidin-4-yl)isoquinolin-3-yl)-1-cyclopropyl-1H-pyrazole-3-carboxamide]
  IC50: 38.9 nM

## CC1(N2CCC(c3cc4cc(NC(=O)c5cnn(C6CC6)c5Cl)ncc4cc3Cl)CC2)COCC1O (single isomer, unassigned) [Ex-1.50, 5-chloro-N-(7-chloro-6-(1-((3R,4R or 3S,4S)-4-hydroxy-3-methyltetrahydrofuran-3-yl)piperidin-4-yl)isoquinolin-3-yl)-1-cyclopropyl-1H-pyrazole-4-carboxamide]
  IC50: 0.0813 nM

## CC1(N2CCC(c3cc4cc(NC(=O)c5cnn(C6CC6)c5Cl)ncc4cc3Cl)CC2)COCC1F (single isomer, unassigned) [Ex-1.51, 5-chloro-N-(7-chloro-6-(1-((3R,4R or 3S,4S)-4-fluoro-3-methyltetrahydrofuran-3-yl)piperidin-4-yl)isoquinolin-3-yl)-1-cyclopropyl-1H-pyrazole-4-carboxamide]
  IC50: 0.112 nM

## CC1(N2CCC(c3cc4cc(NC(=O)c5cnn(C67CC(C6)C7)c5)ncc4cc3Cl)CC2)COCC1O (single isomer, unassigned) [Ex-1.52, 1-(bicyclo[1.1.1]pentan-1-yl)-N-(7-chloro-6-(1-((3R,4R or 3S,4S)-4-hydroxy-3-methyltetrahydrofuran-3-yl)piperidin-4-yl)isoquinolin-3-yl)-1H-pyrazole-4-carboxamide]
  IC50: 1.62 nM

## CC1(N2CCC(c3cc4cc(NC(=O)c5cnn(C67CC(C6)C7)c5)ncc4cc3Cl)CC2)COCC1F (single isomer, unassigned) [Ex-1.53, 1-(bicyclo[1.1.1]pentan-1-yl)-N-(7-chloro-6-(1-((3R,4R or 3S,4S)-4-fluoro-3-methyltetrahydrofuran-3-yl)piperidin-4-yl)isoquinolin-3-yl)-1H-pyrazole-4-carboxamide]
  IC50: 0.676 nM

## N#CC1(c2ccc3cnc(NC(=O)C4CC45CC5)cc3c2)CC12CC2 (single isomer, unassigned) [Ex-2.1]
  IC50: 0.871 nM

## N#CC1(c2ccc3cnc(NC(=O)C4CC45CC5)cc3c2)CC12CC2 (single isomer, unassigned) [Ex-2.2]
  IC50: 0.398 nM

## O=C(Nc1cc2cc(C3CCN(C4COC4)CC3)c(Cl)cc2cn1)C1CC(OC(F)F)C1 (single isomer, unassigned) [Ex-2.3]
  IC50: 5.62 nM

## O=C(Nc1cc2cc(C3CCN(C4COC4)CC3)c(Cl)cc2cn1)C1CC(OC(F)F)C1 (single isomer, unassigned) [Ex-2.4]
  IC50: 14.1 nM

## N#CC1(c2ccc3cnc(NC(=O)C4CC(OC(F)F)C4)cc3c2)CC12CC2 (single isomer, unassigned) [Ex-2.5]
  IC50: 9.77 nM

## N#CC1(c2ccc3cnc(NC(=O)C4CC(OC(F)F)C4)cc3c2)CC12CC2 (single isomer, unassigned) [Ex-2.6]
  IC50: 9.12 nM

## N#CC1(c2ccc3cnc(NC(=O)C4CC(OC(F)F)C4)cc3c2)CC12CC2 (single isomer, unassigned) [Ex-2.7]
  IC50: 10.5 nM

## O=C(Nc1cc2cc(C3CCN(C4COCC4O)CC3)c(Cl)cc2cn1)C1CC12CCOCC2 (single isomer, unassigned) [Ex-4.1, (R or S)-N-(7-chloro-6-(1-((3R,4R or 3R, 4R)-4-hydroxytetrahydrofuran-3-yl)piperidin-4-yl)isoquinolin-3-yl)-6-oxaspiro[2.5]octane-1-carboxamide]
  IC50: 0.631 nM

## O=C(Nc1cc2cc(C3CCN(C4COCC4O)CC3)c(Cl)cc2cn1)C1CC12CCOCC2 (single isomer, unassigned) [Ex-4.2, (R or S)-N-(7-chloro-6-(1-((3R,4R or 3R, 4R)-4-hydroxytetrahydrofuran-3-yl)piperidin-4-yl)isoquinolin-3-yl)-6-oxaspiro[2.5]octane-1-carboxamide]
  IC50: 2.82 nM

## O=C(Nc1cc2cc(C3CCN(C4COCC4O)CC3)c(Cl)cc2cn1)C1CC12CCOCC2 (single isomer, unassigned) [Ex-4.3, N-(7-chloro-6-(1-(4-hydroxytetrahydrofuran-3-yl)piperidin-4-yl)isoquinolin-3-yl)-6-oxaspiro[2.5]octane-1-carboxamide]
  IC50: 18.2 nM

## O=C(Nc1cc2cc(C3CCN(C4COCC4O)CC3)c(Cl)cc2cn1)C1CC12CCOCC2 (single isomer, unassigned) [Ex-4.4, N-(7-chloro-6-(1-(4-hydroxytetrahydrofuran-3-yl)piperidin-4-yl)isoquinolin-3-yl)-6-oxaspiro[2.5]octane-1-carboxamide]
  IC50: 117 nM

## CC1(N2CCC(c3cc4cc(NC(=O)C5CC56CC6)ncc4cc3Cl)CC2)COCC1O (single isomer, unassigned) [Ex-4.5, N-(7-chloro-6-(1-(4-hydroxy-3-methyltetrahydrofuran-3-yl)piperidin-4-yl)isoquinolin-3-yl)spiro[2.2]pentane-1-carboxamide]
  IC50: 0.0813 nM

## CC1(N2CCC(c3cc4cc(NC(=O)C5CC56CC6)ncc4cc3Cl)CC2)COCC1O (single isomer, unassigned) [Ex-4.6, N-(7-chloro-6-(1-(4-hydroxy-3-methyltetrahydrofuran-3-yl)piperidin-4-yl)isoquinolin-3-yl)spiro[2.2]pentane-1-carboxamide]
  IC50: 0.148 nM

## CC1(N2CCC(c3cc4cc(NC(=O)C5CC56CCC6)ncc4cc3Cl)CC2)COCC1O (single isomer, unassigned) [Ex-4.7, N-(7-chloro-6-(1-(4-hydroxy-3-methyltetrahydrofuran-3-yl)piperidin-4-yl)isoquinolin-3-yl)spiro[2.3]hexane-1-carboxamide]
  IC50: 0.0813 nM

## CC(C)(O)C1CC1C(=O)Nc1cc2cc(C3CCN(C4(C)COCC4O)CC3)c(Cl)cc2cn1 (single isomer, unassigned) [Ex-4.9, Trans-N-(7-chloro-6-(1-(4-hydroxy-3-methyltetrahydrofuran-3-yl)piperidin-4-yl)isoquinolin-3-yl)-2-(2-hydroxypropan-2-yl)cyclopropane-1-carboxamide]
  IC50: 0.151 nM

## CC(C)(O)C1CC1C(=O)Nc1cc2cc(C3CCN(C4(C)COCC4O)CC3)c(Cl)cc2cn1 (single isomer, unassigned) [Ex-4.10, Trans-N-(7-chloro-6-(1-(4-hydroxy-3-methyltetrahydrofuran-3-yl)piperidin-4-yl)isoquinolin-3-yl)-2-(2-hydroxypropan-2-yl)cyclopropane-1-carboxamide]
  IC50: 0.0813 nM

## CC1(N2CCC(c3cc4cc(NC(=O)C5C6CCCOC65)ncc4cc3Cl)CC2)COCC1O (single isomer, unassigned) [Ex-4.11, N-(7-chloro-6-(1-(4-hydroxy-3-methyltetrahydrofuran-3-yl)piperidin-4-yl)isoquinolin-3-yl)-2-oxabicyclo[4.1.0]heptane-7-carboxamide]
  IC50: 0.363 nM

## CC1(N2CCC(c3cc4cc(NC(=O)C5C6CCCOC65)ncc4cc3Cl)CC2)COCC1O (single isomer, unassigned) [Ex-4.12, N-(7-chloro-6-(1-(4-hydroxy-3-methyltetrahydrofuran-3-yl)piperidin-4-yl)isoquinolin-3-yl)-2-oxabicyclo[4.1.0]heptane-7-carboxamide]
  IC50: 0.398 nM

## CC1(N2CCC(c3cc4cc(NC(=O)C5C6CCCOC65)ncc4cc3Cl)CC2)COCC1O (single isomer, unassigned) [Ex-4.13, N-(7-chloro-6-(1-(4-hydroxy-3-methyltetrahydrofuran-3-yl)piperidin-4-yl)isoquinolin-3-yl)-2-oxabicyclo[4.1.0]heptane-7-carboxamide]
  IC50: 0.182 nM

## CC1(N2CCC(c3cc4cc(NC(=O)C5C6CCCOC65)ncc4cc3Cl)CC2)COCC1O (single isomer, unassigned) [Ex-4.14, N-(7-chloro-6-(1-(4-hydroxy-3-methyltetrahydrofuran-3-yl)piperidin-4-yl)isoquinolin-3-yl)-2-oxabicyclo[4.1.0]heptane-7-carboxamide]
  IC50: 0.0813 nM

## Cc1noc(C2CC2C(=O)Nc2cc3cc(C4CCN(C5(C)COCC5O)CC4)c(Cl)cc3cn2)n1 (single isomer, unassigned) [Ex-4.15, N-(7-chloro-6-(1-(4-hydroxy-3-methyltetrahydrofuran-3-yl)piperidin-4-yl)isoquinolin-3-yl)-2-(3-methyl-1,2,4-oxadiazol-5-yl)cyclopropane-1-carboxamide]
  IC50: 0.0813 nM

## CC1(N2CCC(c3cc4cc(NC(=O)C5COC6(CCC6)C5)ncc4cc3Cl)CC2)COCC1O (single isomer, unassigned) [Ex-4.17, N-(7-chloro-6-(1-(4-hydroxy-3-methyltetrahydrofuran-3-yl)piperidin-4-yl)isoquinolin-3-yl)-5-oxaspiro[3.4]octane-7-carboxamide]
  IC50: 0.102 nM

## CC1(N2CCC(c3cc4cc(NC(=O)C5COC6(CCC6)C5)ncc4cc3Cl)CC2)COCC1O (single isomer, unassigned) [Ex-4.18, N-(7-chloro-6-(1-(4-hydroxy-3-methyltetrahydrofuran-3-yl)piperidin-4-yl)isoquinolin-3-yl)-5-oxaspiro[3.4]octane-7-carboxamide]
  IC50: 0.166 nM
